Consider 16 molecules from PMC9182007, “Statistical Methods in the Study of Protein Binding and Its Relationship to Drug Bioavailability in Breast Milk” (Molecules, 2022).

Molecules are shown by their SMILES. Where two headings read alike, the source gives them in different places.

The conditions of data set [1]: source not stated, cited from earlier work.
A short description of data set [2]: HPLC on immobilized artificial membrane column (HPLCIAM). It counts as physicochemical. The following applies: for log k IAM: Table S5, IAM column, pH 7.4; for k IAM: Table S5, retention factor, IAM column, phosphate buffer pH 7.4/acetonitrile 80:20.
Data set [3] addresses T1, human serum albumin (HSA) (Homo sapiens, UniProt P02768). As to the kind of experiment: in vitro. Particulars: immobilized hsa column, pH 7.4.
Experimental: (§1) High performance liquid chromatography was performed using immobilized human serum albumin column (HPLCHSA) and immobilized artificial membrane (HPLCIAM). HPLC was the source of the log k values (logarithm of retention factor), log kHSA and log kIAM.
(§2) High performance liquid chromatography was performed using a chromatography column with immobilized human serum albumin. The assay was performed on a Perkin Elmer Series 200 instrument connected to a UV-VIS spectrometer as detector. The analytical wavelength was the same for all compounds at 210 nm. […] The acetate buffer was prepared by dissolving 0.77 g of ammonium acetate in 1 L of distilled water. The pH was then adjusted with a concentrated ammonia solution using a pH meter.
(§3) The phase flow through the system was set to 0.9 mL/min as recommended by the column manufacturer. The solutions were delivered to the column using an autosampler syringe, the injection size was 10 µL. Since the column could not be thermostated, the room was kept at a constant temperature of 25 degrees Celsius.
(§4) Chromatographic data (retention coefficient, k, and derivative, log k) were obtained with TotalChrom software connected to an HPLC instrument. […] The experiment was then repeated and the collected retention rates were the mean values of both series.
The nature of data set [4]: Milk-to-plasma (M/P) drug concentration ratio obtained in vivo, from literature. Also on record: species or system human. The following applies: Table S1, scale of drug penetration into milk 1-4.
For data set [5] the following is noted: Table S1, coded 1/0; ref DrugBank [7]; cited from earlier work.
For data set [6] the following is noted: Table S1, milk/plasma drug concentration ratio, in vivo; cited from earlier work.
Data set [7] deals with T2, bovine serum albumin (BSA) (Bos taurus, UniProt P02769).
T2 construct: purchased Sigma Aldrich
The experiment in a line: NP TLC on plates impregnated with bovine serum albumin. Particulars: Table S3, NP plate impregnated with 2 mg/mL BSA; pH 7.4 mobile phase. It counts as binding.

Data set [8] in a line: NP TLC on non-impregnated control plates. It counts as physicochemical. Particulars: Table S3, non-impregnated NP plate; acetonitrile/acetate buffer pH 7.4/methanol 60:20:20.
Experimental: (§5) For TLC chromatography, glass plates 20 × 20 cm from Merck, covered with silica gel with the addition of a fluorescent indicator, were used. Normal phase (NP) plates were used with standard Merck TLC Silica gel 60 F254 plates, while in reverse phase (RP) silanized plates RP-2: Merck TLC Silica gel 60 RP-2 F254 were used.
Normal and reversed phase thin layer chromatography (NP TLC and RP TLC respectively) was performed using silica-gel-coated glass plates. Half of them were covered with 2 mg/mL bovine serum albumin solution and half remained pure.
(§6) The mobility of the compounds was also determined on the plates with no protein as a modifier. […] The acetate buffer (20 mM) was prepared by dissolving 1.54 g of ammonium acetate in 1 L of distilled water. The pH was then adjusted with a concentrated ammonia solution using a pH meter. The plates were developed in standard, vertical chromatographic chambers, each time using 100 mL of the mobile phase, after the chamber was previously saturated with solvent vapors for approximately 1 h.
(§7) The unfolded-protein-impregnated plates and the control plates were scanned with a Desaga CD 60 densitometer. The values of the delay factor (Rf) were collected, i.e., the ratio of the distance traveled by the substance to be analyzed to the distance traveled through the front of the mobile phase. […] The experiment was repeated (for both BSA-coated and control plates) and the Rf values pooled are the mean of both series of experiments.
Data set [9] has as its system plasma protein. Particulars: ref DrugBank [7], cited from earlier work.
Data set [10] is described as follows: RP TLC on non-impregnated control plates. The following applies: Table S4, non-impregnated RP plate; acetonitrile/acetate buffer pH 7.4/methanol 60:20:20. It counts as physicochemical.
In data set [11] the target is T2, bovine serum albumin (BSA). The experiment in a line: RP TLC on plates impregnated with bovine serum albumin. In kind it is binding. Particulars: Table S4, RP plate impregnated with 2 mg/mL BSA; pH 7.4 mobile phase.
Text: Chromatographic descriptors were obtained in experiments, thin layer chromatography in normal (NP TLC) and reversed mode (RP TLC). The stationary phase was modified with bovine serum albumin (BSA). TLC was the source of retention factor (Rf) values, denoted in statistical models as NP and RP.
as §5
The stationary phase of the plates, both NP and RP, was modified with an aqueous solution of bovine serum albumin purchased from Sigma Aldrich (bovine serum albumin, lyophilized powder).
The impregnation of the plates was carried out with a 2 mg/mL solution applied to the surface using a Desaga SG 1 hand sprayer; the plates were then air dried. […] Normal and reversed phase thin layer chromatography (NP TLC and RP TLC respectively) was performed using silica-gel-coated glass plates. Half of them were covered with 2 mg/mL bovine serum albumin solution and half remained pure.
as §6, §7
Data set [12] deals with T1, human serum albumin (HSA). The following applies: for log k HSA: human, immobilized hsa column.
Experimental: as §1, §2, §3, §4
Where [13] appears, read: Table S1, plasma protein binding given as fraction.
[14] abbreviates: Table S5, retention factor, HSA column, pH 7.4, 25 degrees Celsius.

T1 sequence (P02768 25-609): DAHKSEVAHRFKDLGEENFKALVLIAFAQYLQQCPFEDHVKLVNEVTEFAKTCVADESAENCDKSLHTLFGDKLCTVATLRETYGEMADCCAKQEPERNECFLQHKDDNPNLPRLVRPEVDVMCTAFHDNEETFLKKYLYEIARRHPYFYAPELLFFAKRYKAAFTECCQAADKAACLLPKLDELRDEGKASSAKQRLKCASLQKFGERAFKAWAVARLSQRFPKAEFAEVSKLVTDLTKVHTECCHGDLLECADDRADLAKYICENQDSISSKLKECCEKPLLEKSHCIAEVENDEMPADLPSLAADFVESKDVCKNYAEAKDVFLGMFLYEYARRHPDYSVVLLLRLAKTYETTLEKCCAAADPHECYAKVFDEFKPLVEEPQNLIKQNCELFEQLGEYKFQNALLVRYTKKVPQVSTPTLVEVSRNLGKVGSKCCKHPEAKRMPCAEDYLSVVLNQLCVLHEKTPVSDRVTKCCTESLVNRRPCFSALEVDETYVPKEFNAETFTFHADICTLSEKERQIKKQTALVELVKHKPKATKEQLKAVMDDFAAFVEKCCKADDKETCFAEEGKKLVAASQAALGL
T2 sequence (P02769 25-607): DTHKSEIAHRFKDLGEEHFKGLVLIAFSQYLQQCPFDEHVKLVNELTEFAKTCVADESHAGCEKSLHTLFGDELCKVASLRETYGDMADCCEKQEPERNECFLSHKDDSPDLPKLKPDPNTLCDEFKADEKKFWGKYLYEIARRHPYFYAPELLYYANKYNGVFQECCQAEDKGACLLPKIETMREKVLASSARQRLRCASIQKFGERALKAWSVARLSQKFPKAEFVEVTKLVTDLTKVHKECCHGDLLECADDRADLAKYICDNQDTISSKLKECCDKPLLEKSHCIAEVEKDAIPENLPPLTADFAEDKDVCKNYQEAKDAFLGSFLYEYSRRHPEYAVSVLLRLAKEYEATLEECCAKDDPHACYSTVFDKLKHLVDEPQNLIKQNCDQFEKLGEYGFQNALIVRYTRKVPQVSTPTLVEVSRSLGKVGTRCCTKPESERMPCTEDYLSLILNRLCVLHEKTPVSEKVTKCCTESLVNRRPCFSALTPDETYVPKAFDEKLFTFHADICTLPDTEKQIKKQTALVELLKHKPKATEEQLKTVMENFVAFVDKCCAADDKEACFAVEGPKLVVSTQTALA

For `O=C1CC2(CCCC2)CC(=O)N1CCCCN1CCN(c2ncccn2)CC1` [buspirone], in [1] (Table S1), the BB vivo is given as 0.480. Further, in data set [2], the “log k IAM” value is given as 0.84 and the “k IAM” value is given as 7.00.

In general, chromatographic logD refers to a lipophilicity value derived from retention on a column. Read a high chromatographic logD as a more lipophilic compound. `C[C@H]1c2cccc(O)c2C(=O)C2=C(O)[C@]3(O)C(=O)C(C(N)=O)=C(O)[C@@H](N(C)C)[C@@H]3[C@@H](O)[C@@H]21` [doxycycline] gave a chromatographic logD in [3] of 0.23. Moreover, in data set [4], the M/P code is 1 (Code 1 corresponds to drugs with an M/P value <0.40—completely safe). Besides, in [2], the “log k IAM” value amounted to 0.24 and the “k IAM” value worked out at 1.76. In data set [5], the “CNS+/-” value is given as 0. Further, in data set [6], the M/P is 0.34. Also, the “NP (Rf, BSA-impregnated NP plate)” value in data set [7] was found to be 0.05. In addition, in [8], the “CNP (Rf, control NP plate)” value is given as 0.06. In addition, in data set [9] (setting [13]), the PB was 0.9. In data set [10], the “CRP (Rf, control RP plate)” value is recorded as 0.08. Also, the “RP (Rf, BSA-impregnated RP plate)” value in data set [11] was 0.09. In addition, the “k HSA” value in [12] (setting [14]) turned out to be 1.68.

In turn, `CCOC(=O)[C@H](CCc1ccccc1)N[C@@H](C)C(=O)N1CCC[C@H]1C(=O)O` [enalapril] displayed a chromatographic logD in data set [3] of -0.47. Also, the M/P code in data set [4] is 1 (Code 1 corresponds to drugs with an M/P value <0.40—completely safe). For the same molecule, in data set [2], the “log k IAM” value is -1.29 and the “k IAM” value came out at 0.05. In addition, in [5], the “CNS+/-” value is 0. In data set [6], the M/P was 0.02. In addition, the “NP (Rf, BSA-impregnated NP plate)” value in data set [7] came to 0.33. Also, the “CNP (Rf, control NP plate)” value in data set [8] is on record as 0.33. The PB in data set [9] (setting [13]) is 0.55. For the same molecule, the “CRP (Rf, control RP plate)” value in [10] is 0.60. The “RP (Rf, BSA-impregnated RP plate)” value in [11] was found to be 0.58. The “k HSA” value in [12] (setting [14]) is given as 0.34.

`CCO` [ethanol]: the BB vivo in data set [1] (Table S6, external group) is reported as -0.16. Further, in [9] (Table S6, external group (n = 38), given as fraction), the PB was 0.00.

Molecule `OCCN1CCN(CCC=C2c3ccccc3Sc3ccc(C(F)(F)F)cc32)CC1` [flupenthixol] came in with a chromatographic logD in [3] of 1.19. Moreover, the M/P code in data set [4] is given as 3 (3 range 0.81–1.20—possibly over the safety limit). In data set [2], the “log k IAM” value is 1.71 and the “k IAM” value was 51.21. For the same molecule, the “CNS+/-” value in data set [5] is 1. For the same molecule, the M/P in [6] is listed as 1.15. In addition, the “NP (Rf, BSA-impregnated NP plate)” value in data set [7] is recorded as 0.52. The “CNP (Rf, control NP plate)” value in [8] amounted to 0.51. Moreover, in data set [9] (setting [13]), the PB is reported as 0.95. In data set [10], the “CRP (Rf, control RP plate)” value is listed as 0.66. In addition, in [11], the “RP (Rf, BSA-impregnated RP plate)” value is 0.66. The “k HSA” value in [12] (setting [14]) turned out to be 15.36.

With `COc1ccc2c(c1)c(CC(=O)O)c(C)n2C(=O)c1ccc(Cl)cc1` [indomethacin], the BB vivo in data set [1] (Table S1) is -1.260. For the same molecule, in data set [2], the “log k IAM” value is listed as 0.03 and the “k IAM” value is reported as 1.08. Further, the PB in data set [9] (setting [13]) is 0.97.

Consider `Nc1nnc(-c2cccc(Cl)c2Cl)c(N)n1` [lamotrigine], for which the BB vivo in data set [1] (Table S1) was 0.480. In data set [2], the “log k IAM” value is listed as -0.15 and the “k IAM” value is recorded as 0.71. In addition, the “CNP (Rf, control NP plate)” value in [8] is 0.89. Moreover, in data set [9] (setting [13]), the PB is given as 0.55. Also, in [10], the “CRP (Rf, control RP plate)” value was 0.87.

With `O=C1Nc2ccc(Cl)cc2C(c2ccccc2Cl)=NC1O` (centres unmarked) [lorazepam], the BB vivo in data set [1] (Table S1) is given as 0.440. In data set [2], the “log k IAM” value is given as 0.96 and the “k IAM” value is listed as 9.04. For the same molecule, the PB in data set [9] (setting [13]) is listed as 0.87. For the same molecule, in data set [12] (pH 7.4), the “k HSA” value was 2.21.

In [3], `C[C@](N)(Cc1ccc(O)c(O)c1)C(=O)O` [methyldopa] registered a chromatographic logD of -0.44. Besides, the M/P code in data set [4] was 1 (Code 1 corresponds to drugs with an M/P value <0.40—completely safe). Also, in data set [2], the “log k IAM” value was -1.02 and the “k IAM” value was determined as 0.10. In [5], the “CNS+/-” value is given as 0. Moreover, the M/P in [6] is given as 0.265. The “NP (Rf, BSA-impregnated NP plate)” value in [7] came to 0.37. Also, the “CNP (Rf, control NP plate)” value in data set [8] is 0.38. The PB in [9] (setting [13]) is on record as 0.2. The “CRP (Rf, control RP plate)” value in data set [10] stood at 0.85. The “RP (Rf, BSA-impregnated RP plate)” value in data set [11] was 0.86. Besides, the “k HSA” value in data set [12] (setting [14]) is on record as 0.36.

With `CCCN1C[C@H](CSC)C[C@@H]2c3cccc4[nH]cc(c34)C[C@H]21` [pergolide], the BB vivo in data set [1] (Table S1) is 0.300. Further, the “CNS+/-” value in data set [5] was 1. Also, in [7], the “NP (Rf, BSA-impregnated NP plate)” value amounted to 0.47. Moreover, the “CNP (Rf, control NP plate)” value in [8] came to 0.48. The PB in data set [9] (setting [13]) is 0.9. The “CRP (Rf, control RP plate)” value in data set [10] is on record as 0.55. Also, the “RP (Rf, BSA-impregnated RP plate)” value in [11] was 0.53. Besides, in data set [12] (setting [14]), the “k HSA” value was found to be 0.07. The “log k HSA” value in [12] (pH 7.4) is given as -1.15.

As for `CN(C)CCc1c[nH]c2ccc(Cn3cncn3)cc12` [rizatriptan], in data set [1] (Table S1), the BB vivo is 0.780. Further, in data set [2], the “log k IAM” value amounted to 0.40 and the “k IAM” value was 2.53. In addition, the “CNS+/-” value in data set [5] is reported as 1. Besides, the “NP (Rf, BSA-impregnated NP plate)” value in data set [7] came out at 0.20. In data set [8], the “CNP (Rf, control NP plate)” value was 0.20. For the same molecule, in [12] (setting [14]), the “k HSA” value turned out to be 2.06. Further, the “log k HSA” value in data set [12] (pH 7.4) amounted to 0.31.

For `Cn1c(=O)c2[nH]cnc2n(C)c1=O` [theophylline], the BB vivo in data set [1] (Table S1) is -0.341. Further, in data set [2], the “log k IAM” value is -0.94 and the “k IAM” value came to 0.12.

On to `CSc1ccc2c(c1)N(CCC1CCCCN1C)c1ccccc1S2` (centres unmarked) [thioridazine], for which the BB vivo in data set [1] (Table S1) is recorded as 0.285. In data set [2], the “log k IAM” value is 1.68 and the “k IAM” value is on record as 47.61. Further, the “NP (Rf, BSA-impregnated NP plate)” value in [7] is recorded as 0.43. Besides, the “CNP (Rf, control NP plate)” value in [8] amounted to 0.47. Further, in data set [10], the “CRP (Rf, control RP plate)” value was 0.40. For the same molecule, the “RP (Rf, BSA-impregnated RP plate)” value in data set [11] stood at 0.40. Also, the “k HSA” value in [12] (setting [14]) is reported as 18.57. Further, the “log k HSA” value in data set [12] (pH 7.4) was found to be 1.27.

Molecule `O=c1n(CCCN2CCN(c3cccc(Cl)c3)CC2)nc2ccccn12` [trazodone] registered a chromatographic logD in data set [3] of 0.35. Besides, the M/P code in [4] is on record as 2 (2 corresponds to the range of 0.40–0.80—at the safety limit). Besides, in data set [2], the “log k IAM” value stood at 0.97 and the “k IAM” value is given as 9.30. Besides, in data set [5], the “CNS+/-” value is recorded as 1. The M/P in [6] was 0.53. The “NP (Rf, BSA-impregnated NP plate)” value in [7] turned out to be 0.72. In addition, in [8], the “CNP (Rf, control NP plate)” value is 0.71. In addition, in data set [9] (setting [13]), the PB is given as 0.92. Besides, the “CRP (Rf, control RP plate)” value in data set [10] was 0.76. The “RP (Rf, BSA-impregnated RP plate)” value in [11] was 0.74. In addition, in data set [12] (setting [14]), the “k HSA” value is listed as 2.22.

In turn, `CCCC(CCC)C(=O)O` [valproic acid] came in with a chromatographic logD in [3] of 0.65. Moreover, the M/P code in [4] is listed as 1 (Code 1 corresponds to drugs with an M/P value <0.40—completely safe). In [2], the “log k IAM” value is reported as -1.09 and the “k IAM” value came to 0.08. Moreover, the “CNS+/-” value in data set [5] is listed as 1. The M/P in [6] is on record as 0.05. Moreover, in data set [7], the “NP (Rf, BSA-impregnated NP plate)” value is reported as 0.67. Besides, in data set [8], the “CNP (Rf, control NP plate)” value was 0.69. In data set [9] (setting [13]), the PB is on record as 0.85. Further, in data set [10], the “CRP (Rf, control RP plate)” value is reported as 0.04. Besides, the “RP (Rf, BSA-impregnated RP plate)” value in data set [11] worked out at 0.04. In [12] (setting [14]), the “k HSA” value is 4.46.

In the case of `Cc1ccc(-c2nc3ccc(C)cn3c2CC(=O)N(C)C)cc1` [zolpidem], the BB vivo in [1] (Table S1) is reported as -0.480. For the same molecule, in data set [2], the “log k IAM” value was found to be 0.42 and the “k IAM” value is on record as 2.60. The “k HSA” value in [12] (pH 7.4) is reported as 1.77.
